# Numbers after ± are expanded uncertainties.
# Columns and labels:
# [1] = Crystal; DSC
# [2] = Molar enthalpy of transition or fusion; conditions: Crystal; DSC
structure (smiles),measurement,setting,value
"CC(=O)c1c(C)c([N+](=O)[O-])c(C(C)(C)C)c([N+](=O)[O-])c1C [3',5'-dinitro-2',6'-dimethyl-4'-tert-butylacetophenone]",Triple point temperature,[1],409.5 ± 1 K
same,Molar enthalpy of transition or fusion,[2],5.69 ± 0.167 kcal/mol

# Reference: the NIST ThermoML archive (doi:10.1021/acs.jced.9b00310)
